The structures appear in SMILES notation.

The experiment deals with T1, Glycogen synthase kinase-3β (GSK3β) (Homo sapiens, UniProt P49841).
T1 construct: gene GSK3B
In words: ADP-Glo luminescent kinase assay, nine-point dose curve. The format is biochemical. Background: ADP-Glo first removes unused ATP, then detects ADP through luciferase.

T1 sequence (P49841 whole entry): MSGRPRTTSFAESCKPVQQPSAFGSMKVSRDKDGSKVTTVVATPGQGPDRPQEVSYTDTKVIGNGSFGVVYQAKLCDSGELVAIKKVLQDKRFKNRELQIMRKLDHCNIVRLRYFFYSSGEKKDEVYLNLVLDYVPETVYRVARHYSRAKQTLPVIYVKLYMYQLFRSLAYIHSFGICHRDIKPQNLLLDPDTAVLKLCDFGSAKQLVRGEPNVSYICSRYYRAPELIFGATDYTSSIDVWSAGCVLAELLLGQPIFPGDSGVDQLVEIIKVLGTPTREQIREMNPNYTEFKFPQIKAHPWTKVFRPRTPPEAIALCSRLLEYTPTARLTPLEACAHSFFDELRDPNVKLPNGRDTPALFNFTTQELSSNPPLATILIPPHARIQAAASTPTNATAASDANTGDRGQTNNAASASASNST

For the molecule `COc1cccc(-n2c(=S)sc3c(=O)[nH]c(SCC(=O)Nc4cccc(Cl)c4)nc32)c1` [Cpd22], half-maximal inhibition (IC50) was put at 15.5 µM.
Turning to `CC(C)(C)[C@H]1CCc2[nH]nc(C(=O)NC3CC3)c2C1` [Cpd49], the IC50 (as a rule, the concentration at which inhibition is half-maximal) came out at 9.34 µM.

For the origin of these results see publication PMC7517831, “Integrating Machine Learning-Based Virtual Screening With Multiple Protein Structures and Bio-Assay Evaluation for Discovery of Novel GSK3β Inhibitors” (Frontiers in Pharmacology, 2020).
